Measured values taken from patent US20260158149A1, “GLYCOSYLATED PRODRUGS” (UNIVERSITEIT LEIDEN, priority 2021, published 2026).

Key:
[1] = Whole-body cortisol measurement using ELISA
Protocol: Zebrafish embryos at 2 hpf received a chemical treatment, as indicated, with daily refreshment of the solutions, until 96 hpf. Then, the treatments were stopped and embryos were incubated in egg water until 5 dpf to avoid cross-reactivity with the compounds of the cortisol antibody used in the ELISA. Then, the treatments were stopped and replaced with egg water. At 5 dpf, the larvae were collected in an Eppendorf tube and 100 μL of ice-cold phosphate-buffered saline (PBS) was added. The larvae were homogenized using a BulletBlender® for 3 min at 8,000 rpm. Ethyl acetate was added to the homogenate and the supernatant was gathered and vaporized. A volume of 150 μl of 0.2% Bovine serum albumin (Sigma Aldrich) dissolved in phosphate-buffered saline (PBS) was added to the samples and frozen. Whole-body cortisol of the zebrafish larvae was determined by ELISA (Demeditec Diagnostics GmbH, Kiel-Wellsee, Germany), following the manufacturer's instructions. In each experiment, three biological replicates were used for each treatment group, and the colorimetric assay was performed using technical duplicates.

human GR = molecular target: T1, human GR (Homo sapiens, UniProt P04150); experiment: PolarScreen Glucocorticoid Receptor Competitor Assay
T1 sequence (P04150 1-777): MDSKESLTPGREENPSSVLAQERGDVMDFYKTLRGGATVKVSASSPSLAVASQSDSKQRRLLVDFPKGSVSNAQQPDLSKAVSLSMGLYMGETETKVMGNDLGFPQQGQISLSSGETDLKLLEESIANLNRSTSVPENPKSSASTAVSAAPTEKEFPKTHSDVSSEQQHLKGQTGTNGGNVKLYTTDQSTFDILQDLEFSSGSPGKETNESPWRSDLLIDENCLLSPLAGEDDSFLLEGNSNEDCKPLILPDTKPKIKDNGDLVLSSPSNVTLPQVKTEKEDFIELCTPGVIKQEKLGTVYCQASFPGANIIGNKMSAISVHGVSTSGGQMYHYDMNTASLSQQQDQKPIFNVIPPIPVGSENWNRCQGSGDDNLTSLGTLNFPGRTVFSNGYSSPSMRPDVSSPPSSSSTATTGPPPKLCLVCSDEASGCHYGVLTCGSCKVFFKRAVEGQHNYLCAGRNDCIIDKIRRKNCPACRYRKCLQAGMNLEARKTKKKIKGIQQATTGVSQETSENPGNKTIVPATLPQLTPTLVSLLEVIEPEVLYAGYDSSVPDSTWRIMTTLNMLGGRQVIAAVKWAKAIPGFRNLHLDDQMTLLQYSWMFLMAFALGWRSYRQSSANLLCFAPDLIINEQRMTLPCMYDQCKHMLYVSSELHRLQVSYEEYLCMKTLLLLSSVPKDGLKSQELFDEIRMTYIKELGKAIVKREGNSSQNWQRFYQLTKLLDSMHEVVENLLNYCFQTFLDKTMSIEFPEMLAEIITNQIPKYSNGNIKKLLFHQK

[2] = Whole-body glucose measurement in larvae
Protocol: Zebrafish embryos at 2 hpf received a chemical treatment, as indicated, with daily refreshment of the solutions, until 5 dpf. At 5 dpf, the larvae were collected in an Eppendorf tube and 100 μL of ice-cold glucose buffer was added to each sample. The larvae were homogenized using a BulletBlender® for 3 min at 8,000 rpm. The homogenates were then centrifuged at 4° C. for 8 min at 11000 rpm and the supernatant was stored at −20° C. Whole-body glucose concentrations were determined using a Glucose Colorimetric Assay kit (Cayman Chemical, USA), according to the manufacturer's instructions. In each experiment, three biological replicates were used for each treatment group, and the colorimetric assay was performed using technical duplicates.

[3] = system: il1b, il6, mmp9, mmp13, il8 mRNA; experiment: qPCR of pro-inflammatory genes after tail wounding; format: in vivo, Zebrafish (Danio rerio)
Text: For the tail fin amputation experiments, 3 days post fertilization (dpf) larvae from the Tg(mpx:GFP^i114/mpeg1:mCherry^umsF001) line were anesthetized in 0.02% buffered aminobenzoic acid ethyl ester (tricaine) in egg water and placed on a 2% agarose-coated petri dish. The tails were partially amputated with a 1 mm sapphire blade (World Precision Instruments) under a Leica M165C stereomicroscope (Leica Microsystems, Wetzlar, Germany). Chemical treatment (or 0.1% DMSO as vehicle treatment) was started at 2 h before the amputation (pretreatment) and was continued for 4 h after the tail fin amputation (20 larvae per group, unless indicated otherwise), at which time point the larvae were fixed in 4% paraformaldehyde (PFA) overnight at 4° C. and stored at 4° C. until further examination. In some experiments, a 24 h treatment with miglustat, ME656 or MZ31 was started at 2 dpf, and these treatments were continued during the pretreatment and treatment with the other chemicals. For imaging of larvae from the Tg(mpx:GFP^i114/mpeg1:mCherry^umsF001) line, a LeicaMZ16FA fluorescence stereomicroscope with LAS 3.7 software was used. Neutrophils were detected by GFP fluorescence and macrophages by mCherry fluorescence. The neutrophil numbers were determined by blinded manual counting in a pre-determined area. When larvae from gba2^−/− or gr^s357mutant lines were used, neutrophil labeling was performed with the TSA fluorescein detection kit (PerkinElmer) for specific staining of Myeloperoxidase (Mpx)-positive cells, following the manufacturer's instructions.
(§1) For experiments in zebrafish, gene expression was measured using 3 dpf embryos. Groups of 15 larvae were collected in TRIzol reagent (Invitrogen) and mRNA was isolated using the miRNeasy mini kit (Qiagen), according to the manufacturer's instructions. For experiments in HeLa cells, samples were collected from a single well from 6 well plates (80% confluent) in TRIzol reagent and mRNA was isolated using the RNeasy mini kit. Zebrafish and cells samples were treated with DNAse utilizing the DNA-Free™ kit (Ambion). The cDNA synthesis was performed using iScript cDNA synthesis kit (Bio-Rad) using 1 μg of RNA per sample. For qPCR, 10 μM of forward and 10 μM of reverse primer, 12.5 μL of iQ SYBR Green Supermix (Bio-Rad), and 2 μL of cDNA were added to the qPCR reaction mixture. […] The qPCR reactions were performed on a MyiQ-single-color real-time PCR detection system (Bio-Rad) with initial denaturation for 3 min at 95° C. and 40 cycles of 15 s at 95.5° C., 15 s at 60° C., and 30 s at 72° C. Cycle threshold values (Ct values, i.e. the cycle numbers at which a threshold value of the fluorescence intensity was reached) were determined for each sample. The gene expression level for each sample was normalized using the expression of ppial (peptidylprolyl isomerase Ab (cyclophilin A)) for zebrafish samples, and 18S rRNA for human cells. The fold change per sample (compared to the respective control group) was calculated using the ΔΔCt method.

[4] = system: Gr target genes fkbp5, pck1 and nfkbiaa; experiment: qPCR of Gr target genes fkbp5, pck1, nfkbiaa; format: in vivo, Zebrafish (Danio rerio)
Protocol: as §1

[5] = 5 dpf larvae treated from 2 hpf, non-wounded

## C[C@]12C=CC(=O)C=C1CC[C@@H]1[C@@H]2[C@@H](O)C[C@@]2(C)[C@H]1CC[C@]2(O)C(=O)CO[C@@H]1O[C@H](CO[C@@H]2O[C@H](CO)[C@@H](O)[C@H](O)[C@H]2O)[C@@H](O)[C@H](O)[C@H]1O [GbPdn, 21-O-Gentobiose-Prednisolone]
[1]; [5]
  whole body cortisol level: did not affect the glucose or cortisol concentration
[1]; 5 dpf larvae, wounded at 2 dpf
  whole body cortisol level under wounding conditions: decrease in cortisol concentration
Human GR
  decrease in the binding affinity relative to Pdn: ~1400 fold
[2]; [5]
  whole body glucose level: did not affect the glucose or cortisol concentration
[2]; 5 dpf larvae, wounded at 2 dpf
  whole body glucose level under wounding conditions: increase in glucose levels
[3]
  expression of the pro-inflammatory genes il1b, il6 and il8: suppression of the expression
[4]
  expression of Gr target genes fkbp5, pck1 and nfkbiaa: lack of effect
